The text below walks through data of article PMC11839854, “Exploration of (R)-[^11C]YH168 as a PET tracer for imaging monoacylglycerol lipase in the brain: from mice to non-human primates” (European Journal of Nuclear Medicine and Molecular Imaging, 2024).

Holding throughout (type): biochemical
The target of test [1] is T1, monoacylglycerol lipase (MAGL) (Macaca fascicularis, UniProt A0A2K5V664).
T1 sequence (A0A2K5V664 1-352): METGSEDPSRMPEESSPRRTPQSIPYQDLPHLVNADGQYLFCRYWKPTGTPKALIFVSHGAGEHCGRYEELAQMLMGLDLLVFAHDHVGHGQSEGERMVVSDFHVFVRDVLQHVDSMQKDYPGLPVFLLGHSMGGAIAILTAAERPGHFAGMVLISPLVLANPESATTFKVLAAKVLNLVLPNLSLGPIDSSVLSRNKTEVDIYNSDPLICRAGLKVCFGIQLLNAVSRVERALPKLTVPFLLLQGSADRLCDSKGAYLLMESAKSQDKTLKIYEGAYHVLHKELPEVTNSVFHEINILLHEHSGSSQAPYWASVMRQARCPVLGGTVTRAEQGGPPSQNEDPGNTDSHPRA
In words: enzymatic inhibition assay with cynomolgus monkey MAGL protein.

The target of test [2] is T2, monoacylglycerol lipase (MAGL) (Mus musculus, UniProt O35678).
T2 construct: gene Mgll
T2 sequence (O35678 1-303): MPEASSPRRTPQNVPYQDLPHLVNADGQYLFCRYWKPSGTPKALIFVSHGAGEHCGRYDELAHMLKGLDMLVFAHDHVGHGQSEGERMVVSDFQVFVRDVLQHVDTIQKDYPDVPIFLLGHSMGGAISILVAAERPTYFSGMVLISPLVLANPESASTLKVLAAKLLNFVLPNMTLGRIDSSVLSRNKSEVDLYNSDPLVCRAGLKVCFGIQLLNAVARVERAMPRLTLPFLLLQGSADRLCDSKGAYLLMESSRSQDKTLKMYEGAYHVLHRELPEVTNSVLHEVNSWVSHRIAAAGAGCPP
The test is described as follows: enzymatic inhibition assay with mouse MAGL protein; supported by autoradiography and PET in wild-type vs MAGL knockout mice.

Test [3] concerns the target T3, monoacylglycerol lipase (MAGL) (Homo sapiens, UniProt Q99685).
T3 construct: gene MGLL
T3 sequence (Q99685 1-303): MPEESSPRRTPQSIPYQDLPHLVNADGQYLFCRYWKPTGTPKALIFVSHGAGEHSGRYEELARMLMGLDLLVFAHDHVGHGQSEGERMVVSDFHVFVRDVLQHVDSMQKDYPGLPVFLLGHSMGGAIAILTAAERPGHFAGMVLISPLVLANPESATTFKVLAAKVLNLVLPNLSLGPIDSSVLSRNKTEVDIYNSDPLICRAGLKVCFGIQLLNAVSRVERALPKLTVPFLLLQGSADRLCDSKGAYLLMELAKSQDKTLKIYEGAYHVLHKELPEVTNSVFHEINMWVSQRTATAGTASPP
The test is described as follows: enzymatic inhibition assay with human MAGL protein.

In the case of `Cc1cccc(-c2ccc(N3C[C@H](N4CCN(C(=O)c5ccco5)CC4)CC3=O)cc2)c1` [(R)-YH168], the values for the concentration for half-maximal inhibition (IC50) in test [1], in test [2] and in test [3] were 2.7 nM, 3.8 nM and 4 nM, respectively.
